Reference: patent US8192962B2, “Processes for detecting toxic substances” (Daikin Industries, Ltd., priority 2001, dated 2012)

Tested on: Energy system protein genes
Assay: DNA chip mRNA expression in yeast, energy system protein genes (Table 4)
Format: cell-based, Saccharomyces cerevisiae S288C
Description: Yeast (Saccharomyces cerevisiae S288C (α SUC2mal mel gap2 CUP1)) were incubated at 25° C. on YPD medium (yeast extract 1%, polypepton 2%, glucose 2%). One of toxic chemical substances was added to the cells at logarithmic growth phase, and the cells were further incubated for two hours. Cells were cultured without any chemical substance in the same condition, and were used as control. Concentrations of the chemical substances were defined to inhibit the growth of the yeast but not lead to death.
After completion of the incubation, the culture was centrifuged to collect the cells. To the cells, sodium acetate buffer (50 mM sodium acetate, 10 mM EDTA, 1% SDS) was added, and the mixture was shaken at 65° C. for five minutes, followed by returning to room temperature, and obtaining the supernatant, of which the procedures were repeated two times. To the supernatant, ½ amount of a solution of phenol/chloroform was added, and the mixture was centrifuged to give a supernatant, which was added with an equal amount of chloroform, and the mixture was centrifuged to give a supernatant. To the supernatant, an equal amount of isopropanol containing 0.3 M sodium acetate was added, and the mixture was allowed to stand at room temperature for 30 minutes, after which the mixture was centrifuged to give a sediment of the whole RNAs. Seventy % ethanol was added to the sediment, and the mixture was again centrifuged to give a sediment, which was then dried and dissolved in water. mRNA was isolated from the whole RNAs as followings. In view of the fact that a poly A chain is attached to the 3′ terminus of mRNA, a polynucleotide having a poly T structure which was immobilized on the surface of latex beads was used to trap the mRNA, and then the mRNA was washed and eluted with spine column (Oligotex-dT30<Super>mRNA Purification Kit, Takara). Reverse transcription of the mRNA was conducted with a reverse transcriptase (Super Script II Reverse Transcriptase; catalogue No. 18064-014, GibcoBRL) using fluorescence-labeled nucleotides to give cDNAs that were introduced with Cy3-dUTP or Cy5-dUTP during the reverse transcription.
The labeled cDNAs were dissolved in TE buffer (10mM Tris-HCl/1 mM EDTA, pH8.0), and the solution was dropped on the DNA chip containing the whole genes of yeast (DNA Chip Research Inc. Japan) so that the cDNAs were hybridized on the DNA chip at 65° C. for over 12 hours. The fluoresces intensity of the DNA chip was read with a scanner, and the ratio relative to the fluorescence intensity resulting from the absence of chemical substance was estimated as the following, which is shown in Tables 1 to 9: […]

Measured: The level of expressed mRNA in the presence of chemical substance/The level of expressed mRNA in the absence of chemical substance

[Cl][Pb][Cl] [(4), PbCl2]
1.8: yeast gene YDL181W, cells incubated two hours with the chemical substance | yeast gene YDR050C, cells incubated two hours with the chemical substance | yeast gene YFL057C | yeast gene YGL187C, cells incubated two hours with the chemical substance | yeast gene YGL191W, cells incubated two hours with the chemical substance | yeast gene YJL052W
0.7: yeast gene YHR179W | yeast gene YKL148C, cells incubated two hours with the chemical substance | yeast gene YLR304C, cells incubated two hours with the chemical substance
3.0: yeast gene YCR105W, cells incubated two hours with the chemical substance | yeast gene YGL018C, cells incubated two hours with the chemical substance | yeast gene YPL276W, cells incubated two hours with the chemical substance
1.5: yeast gene YBR221C, cells incubated two hours with the chemical substance | yeast gene YDR231C | yeast gene YLR354C, cells incubated two hours with the chemical substance | yeast gene YMR073C, cells incubated two hours with the chemical substance | yeast gene YNL071W
2.5: yeast gene YJR155W | yeast gene YML087C | yeast gene YPL088W
0.9: yeast gene YJL216C, cells incubated two hours with the chemical substance | yeast gene YKR009C, cells incubated two hours with the chemical substance | yeast gene YLR044C, cells incubated two hours with the chemical substance | yeast gene YMR267W, cells incubated two hours with the chemical substance, 25° C., YPD medium | yeast gene YOL165C | yeast gene YPL240C
0.8: yeast gene YDL078C, cells incubated two hours with the chemical substance | yeast gene YGL205W, cells incubated two hours with the chemical substance | yeast gene YJL121C, cells incubated two hours with the chemical substance | yeast gene YLR134W, cells incubated two hours with the chemical substance | yeast gene YMR205C, cells incubated two hours with the chemical substance | yeast gene YMR261C, cells incubated two hours with the chemical substance | yeast gene YPL031C, cells incubated two hours with the chemical substance
1.3: yeast gene YDL067C, cells incubated two hours with the chemical substance | yeast gene YDL174C | yeast gene YDR298C, cells incubated two hours with the chemical substance | yeast gene YGL256W, cells incubated two hours with the chemical substance | yeast gene YGR254W | yeast gene YJL166W, cells incubated two hours with the chemical substance | yeast gene YPL061W, cells incubated two hours with the chemical substance
1.9: yeast gene YKR058W, cells incubated two hours with the chemical substance, 25° C., YPD medium | yeast gene YLR284C, cells incubated two hours with the chemical substance | yeast gene YLR395C, cells incubated two hours with the chemical substance | yeast gene YML120C, cells incubated two hours with the chemical substance
1.6: yeast gene YCR046C, cells incubated two hours with the chemical substance | yeast gene YGR244C | yeast gene YMR118C
4.7: yeast gene YOR388C, cells incubated two hours with the chemical substance
0.6: yeast gene YGL062W | yeast gene YGR087C, cells incubated two hours with the chemical substance | yeast gene YIR031C, cells incubated two hours with the chemical substance
2.3: yeast gene YOR178C, cells incubated two hours with the chemical substance
1.0: yeast gene YDR001C | yeast gene YER178W | yeast gene YGR192C | yeast gene YJR009C | yeast gene YJR121W, cells incubated two hours with the chemical substance | yeast gene YKL060C, cells incubated two hours with the chemical substance | yeast gene YLL041C, cells incubated two hours with the chemical substance | yeast gene YNL241C | yeast gene YNL331C | yeast gene YOR142W, cells incubated two hours with the chemical substance
7.9: yeast gene YGR043C
2.4: yeast gene YGR174C, cells incubated two hours with the chemical substance
2.2: yeast gene YDL107W, cells incubated two hours with the chemical substance | yeast gene YDR178W, cells incubated two hours with the chemical substance | yeast gene YFR053C | yeast gene YPL171C | yeast gene YPR184W, cells incubated two hours with the chemical substance
2.7: yeast gene YAL060W
1.7: yeast gene YKL016C, cells incubated two hours with the chemical substance | yeast gene YKL141W, cells incubated two hours with the chemical substance | yeast gene YLR295C, cells incubated two hours with the chemical substance, 25° C., YPD medium | yeast gene YNL202W, cells incubated two hours with the chemical substance
2.0: yeast gene YBR185C, cells incubated two hours with the chemical substance | yeast gene YCL040W
3.5: yeast gene YIL160C | yeast gene YLR258W, cells incubated two hours with the chemical substance
5.1: yeast gene YEL039C, cells incubated two hours with the chemical substance | yeast gene YPL275W, cells incubated two hours with the chemical substance
1.4: yeast gene YBL099W, cells incubated two hours with the chemical substance | yeast gene YBR001C, cells incubated two hours with the chemical substance | yeast gene YDR377W, cells incubated two hours with the chemical substance | yeast gene YGR062C, cells incubated two hours with the chemical substance, 25° C., YPD medium | yeast gene YJR048W
1.1: yeast gene YBL058W, cells incubated two hours with the chemical substance | yeast gene YDR079W, cells incubated two hours with the chemical substance | yeast gene YEL024W, cells incubated two hours with the chemical substance | yeast gene YMR323W, cells incubated two hours with the chemical substance | yeast gene YOL086C, cells incubated two hours with the chemical substance | yeast gene YPR048W, cells incubated two hours with the chemical substance
1.2: yeast gene YCR012W | yeast gene YLR345W | yeast gene YLR377C, cells incubated two hours with the chemical substance | yeast gene YML129C, cells incubated two hours with the chemical substance | yeast gene YPL262W, cells incubated two hours with the chemical substance
2.1: yeast gene YLR038C, cells incubated two hours with the chemical substance
3.2: yeast gene YDR529C, cells incubated two hours with the chemical substance
3.7: yeast gene YDL021W
3.3: yeast gene YKR097W
